We go through seven molecules from BindingDB's records for patent US11866405 (Astrazeneca, 2024).

A word on the IC50: it is the point on the concentration scale where inhibition reaches its midpoint. Low readings indicate greater potency in that assay, high ones weaker potency in that assay.

The assay deals with T1, Interleukin-1 receptor-associated kinase 4 (Homo sapiens, UniProt Q9NWZ3).
T1 sequence (Q9NWZ3 whole entry): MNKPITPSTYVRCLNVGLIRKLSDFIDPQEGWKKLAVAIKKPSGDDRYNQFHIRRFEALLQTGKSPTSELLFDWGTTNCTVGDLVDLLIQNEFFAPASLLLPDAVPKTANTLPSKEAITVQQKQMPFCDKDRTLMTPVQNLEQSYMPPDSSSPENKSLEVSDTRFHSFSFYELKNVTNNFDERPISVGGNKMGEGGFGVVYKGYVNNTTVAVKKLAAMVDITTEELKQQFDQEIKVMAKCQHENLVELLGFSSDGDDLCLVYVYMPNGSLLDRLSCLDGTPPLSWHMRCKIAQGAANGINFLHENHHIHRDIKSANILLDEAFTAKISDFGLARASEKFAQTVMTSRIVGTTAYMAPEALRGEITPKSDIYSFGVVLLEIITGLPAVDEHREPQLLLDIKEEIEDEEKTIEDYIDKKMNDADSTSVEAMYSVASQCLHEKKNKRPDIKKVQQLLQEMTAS
Briefly: Potency of IRAK4 Inhibitor Compounds in IRAK4 Enzyme Assay. How it is done: The inhibitory activity of compounds against IRAK4 were determined in an enzymatic assay using mass spectrometry readout. Ten point half-log compound concentration response curves, with a top concentration of 1 μM or 10 μM, were generated from 10 mM stocks of compound solubilized in DMSO using an Echo 655 (Labcyte Inc) and added to 384 well assay plates (Greiner #781280). To the assay plates, 10 μL of human recombinant IRAK4 protein (Life Technologies #PV4002) diluted to a final concentration of 0.2 nM in assay buffer (50 mM Tris-HCl pH 7.4, 10 mM MgCl, 5 mM glutathione, 0.01% BSA, 3 mM ATP) was added. The enzyme was incubated with the compounds at room temperature for 15 minutes before a peptide substrate ([…], Innovagen custom synthesis, 10 mM in DMSO) was added to each well to a final concentration of 10 μM using an Echo 655 (Labcyte Inc). After two hours at room temperature, the reaction was stopped with 90 μL of 0.4% formic acid (Merck #33015). The unphosphorylated and phosphorylated peptide were measured by LC-MS/MS on a Waters TQ-S mass spectrometer. Peaks were integrated using the TargetLynx software and the ratios between phosphorylated and unphosphorylated peptides were calculated.
Regarding `C[C@@]1(O)CCC[C@H](n2cc3cc(C(=O)Nc4cnn5cccnc45)c(OC4CC4)cc3n2)C1` (relative stereo) [US11866405, Example 54], the IC50 was 0.6 nM.
In the case of `C[C@H]1C[C@@H](O)CC[C@@H]1n1cc2cc(C(=O)Nc3cnn4cccnc34)c(OC3CC3)cc2n1` [US11866405, Example 45], the IC50 is 1.4 nM.
Under `COc1cc2nn([C@H]3CC[C@H](O)C[C@@H]3C)cc2cc1C(=O)Nc1cnn2cccnc12` [US11866405, Example 40] stands 6.3 nM; under `COc1cc2nn([C@@H]3CC[C@]4(CCC(=O)N4C)C[C@H]3C)cc2cc1C(=O)Nc1cnc2cccnn12` (relative stereo; form 2) [US11866405, Example 122], 0.7 nM; under `COc1cc2nn([C@H]3CC[C@H](N(C)C(=O)[C@H](C)O)CC3)cc2cc1C(=O)Nc1cnc2cccnn12` [US11866405, Example 94], 0.3 nM.
As for `COc1cc2nn([C@H]3CC[C@H](N(C)C(=O)[C@@H]4CC[C@H](O)C4)CC3)cc2cc1C(=O)Nc1cnn2cccnc12` (relative stereo) [US11866405, Example 115], the figure is 0.8 nM; as for `COc1cc2nn([C@H]3CCC[C@H](O)[C@@H]3C)cc2cc1C(=O)Nc1cnc2cccnn12` (relative stereo) [US11866405, Example 106], 0.6 nM.
